Here are results for five compounds from patent publication US20060199966A1, “Indol-2-amides as glycogen phosphorylase inhibitors” (AstraZeneca AB, priority 2003, published 2006).

pIC50: −log10 of the molar value. ≈ marks a conversion by molar mass, not a printed value.

In one data set the test system is conscious dogs. As to conditions: following a glucagon challenge; cited from earlier work.
The subject of a further data set is db/db and ob/ob mice. As to conditions: dose related; cited from earlier work.
For the next data set, the system named is hepatocytes. To be noted: cited from earlier work; for glucose output: glucagon stimulated.
For data set [1], the target named is T1, Human recombinant liver glycogen phosphorylase a (hrl GPa) (Homo sapiens, UniProt P06737).
T1 sequence (P06737 1-847): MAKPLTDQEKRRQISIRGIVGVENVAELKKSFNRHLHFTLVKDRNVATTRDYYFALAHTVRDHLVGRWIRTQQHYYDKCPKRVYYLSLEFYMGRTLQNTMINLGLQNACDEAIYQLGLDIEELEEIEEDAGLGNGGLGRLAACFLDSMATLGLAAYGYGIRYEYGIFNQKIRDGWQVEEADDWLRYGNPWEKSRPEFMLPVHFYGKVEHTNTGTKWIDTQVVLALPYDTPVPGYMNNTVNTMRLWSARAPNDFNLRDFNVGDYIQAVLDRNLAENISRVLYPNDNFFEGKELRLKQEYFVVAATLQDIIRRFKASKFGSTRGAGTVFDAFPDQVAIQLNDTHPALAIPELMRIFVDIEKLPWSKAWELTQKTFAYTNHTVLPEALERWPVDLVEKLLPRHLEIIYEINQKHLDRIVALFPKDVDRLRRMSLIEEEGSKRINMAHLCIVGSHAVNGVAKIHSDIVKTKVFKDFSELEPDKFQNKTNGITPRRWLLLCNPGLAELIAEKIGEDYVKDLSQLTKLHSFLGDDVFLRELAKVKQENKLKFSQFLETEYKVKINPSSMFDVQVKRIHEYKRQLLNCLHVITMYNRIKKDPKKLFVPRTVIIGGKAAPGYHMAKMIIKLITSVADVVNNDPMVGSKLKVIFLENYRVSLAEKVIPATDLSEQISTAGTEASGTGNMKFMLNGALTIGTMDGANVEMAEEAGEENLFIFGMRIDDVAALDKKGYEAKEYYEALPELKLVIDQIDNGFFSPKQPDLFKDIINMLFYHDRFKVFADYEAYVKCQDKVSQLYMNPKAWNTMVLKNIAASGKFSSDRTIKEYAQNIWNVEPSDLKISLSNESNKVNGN
The data set is described as follows: Glycogen phosphorylase inhibition, multienzyme coupled assay. It counts as biochemical. As to conditions: hrl GPa 20 nM, 6 hours at 30° C. As to the method:
The activity of the compounds is alternatively determined by measuring the inhibitory effect of the compounds on glycogen degradation, the production of glucose-1-phosphate from glycogen is monitored by the multienzyme coupled assay, as described in EP 0 846 464 A2, general method of Pesce et al (Pesce, M A, Bodourian, S H, Harris, R C, and Nicholson, J F (1977) Clinical Chemistry 23, […]). The reactions were in 384 well microplate format in a volume of 50 μl. The change in fluorescence due to the conversion of the co-factor NAD to NADH is measured at 340 nm excitation, 465 nm emission in a Tecan Ultra Multifunctional Microplate Reader. The reaction is in 50 mM […], 3.5 mM KH2PO4, 2.5 mM MgCl2, 2.5 mM ethylene glycol-bis(b-aminoethyl ether) N,N,N,′N′-tetraacetic acid, 100 mM KCl, 8 mM D-(+)-glucose pH7.2, containing 0.5 mM dithiothreitol, the assay buffer solution. Human recombinant liver glycogen phosphorylase a (hrl GPa) 20 nM is pre-incubated in assay buffer solution with 6.25 mM NAD, 1.25 mg type E1 glycogen at 1.25 mg ml^−1 the reagent buffer, for 30 minutes. […] The non-inhibited activity of GPa is measured in the presence of 10 μl 5% DMSO in assay buffer solution and maximum inhibition measured in the presence of 5 mgs ml^−1 N-ethylmaleimide. […] Relative Fluoresence Units (RFUs) are measured at 340 nm excitation, 465 nm emission. […]

A short description of a further data set: Thermodynamic solubility. It counts as physicochemical. To be noted: phosphate buffer, pH 7.4, aqueous buffer, thermodynamic from solid, 0.1 M phosphate at pH7.4 for 24 hours. As to the method:
The thermodynamic solubility data for the compounds of the invention as given above may be measured by agitating the compound in 0.1 M phosphate at pH7.4 for 24 hours, then analysis of the supernatant (for example by LCUV/MS) using a solution (for example in DMSO) of known concentration as the calibrant.

Consider `CCN1C(C)=C(C(=O)OC(C)C)C(c2ccccc2Cl)C2=C1COC2=O` (stereo not drawn) [Bay R 3401], for which, in the data set with conscious dogs, the arterial plasma glucose entry was “reduced significantly” and the hepatic glucose output result was “reduced significantly”.
As to `CN(C)C(=O)[C@H](O)[C@H](Cc1ccccc1)NC(=O)c1cc2cc(Cl)ccc2[nH]1` [CP91149], in the data set on db/db and ob/ob mice, the plasma glucose concentration entry is listed as “reduced, in a dose related manner”. For the same compound, in the data set on hepatocytes, the glucagon stimulated glycogenolysis entry is “reduce” and the glucose output result was “reduce”.
Regarding `O=C(N[C@@H](Cc1ccc(F)cc1)C(=O)N1CCC(O)CC1)c1cc2cc(Cl)ccc2[nH]1` [CP320626], in the data set on db/db and ob/ob mice, the plasma glucose concentration entry is listed as “reduced, in a dose related manner”. Also, in the data set on hepatocytes, the glucagon stimulated glycogenolysis entry was “reduce” and the glucose output result is given as “reduce”.
`CN(C(=O)[C@@H](N)CO)[C@@H]1c2ccccc2C[C@H]1NC(=O)c1cc2cc(Cl)ccc2[nH]1.Cl` [Example 2, 5-Chloro-N-{(1R,2R)-1-[methyl(seryl)amino]-2,3-dihydro-1H-inden-2-yl}-1H-indole-2-carboxamide hydrochloride]: the negative-log IC50 (pIC50) in data set [1] was 6.30. This compound also had a solubility at 24 h in the data set “Thermodynamic solubility” of 173 µM.
The corresponding values for `CN(C(=O)[C@H](O)CO)[C@@H]1c2ccccc2C[C@H]1NC(=O)c1cc2cc(Cl)ccc2[nH]1` [Example 19, 5-Chloro-N-{(1R,2R)-1-[[(2R)-2,3-dihydroxypropanoyl](methyl)amino]-2,3-dihydro-1H-inden-2-yl}-1H-indole-2-carboxamide] are 6.96 and 119 µM (≈ 50.9 µg/mL).

By pIC50 is commonly meant the negative decadic logarithm of the IC50, by convention in mol/L. A word on the solubility: it is how much of the substance goes into solution per volume.
